Data as given in the NIST ThermoML archive (doi:10.1021/je200788z).

Columns and labels:
[1] = 101.33 kPa, Liquid; for speed of sound: Sing-around technique in a fixed-path interferometer; for mass density: Vibrating tube method
[2] = refractive index (Na D-line) (dimensionless); conditions: 101.33 kPa, Liquid, Standard Abbe refractometry

CC(C)COC(=O)[C@H](C)[NH3+].CCCCCCCCCCCCOS(=O)(=O)[O-] [(S)-1-isobutoxy-1-oxopropan-2-aminium dodecyl sulfate]
Conditions | mass density, [1] [kg/m3] | refractive index, [2] | speed of sound, [1] [m/s]
288.15 K | 1049.18 | 1.456 | 1447.6
293.15 K | 1045.48 | 1.454 | 1423.6
298.15 K | 1041.75 | 1.452 | 1401.9
303.15 K | 1038.02 | 1.45 | 1381.6
308.15 K | 1034.13 | 1.4479 | 1362.5
313.15 K | 1030.13 | 1.4458 | 1343.9
318.15 K | 1026.31 | 1.4437 | 1325.8
323.15 K | 1022.6 | 1.4418 | 1308.1
328.15 K | 1019.08 | 1.4397 | 1291.2
333.15 K | 1015.6 | 1.4377 | 1275.8
338.15 K | 1012.14 | 1.4354 | 1261
343.15 K | 1008.75 | 1.4336 | 1246.6

CC(C)COC(=O)[C@@H]1CCC[NH2+]1.CCCCCCCCCCCCOS(=O)(=O)[O-] [(S)-2-(isobutoxycarbonyl)pyrrolidinium dodecyl sulfate]
Conditions | mass density, [1] [kg/m3] | refractive index, [2] | speed of sound, [1] [m/s]
288.15 K | 1043.22 | 1.4648 | 1460.2
293.15 K | 1039.54 | 1.4623 | 1445.2
298.15 K | 1035.88 | 1.4598 | 1429.2
303.15 K | 1032.22 | 1.4574 | 1413
308.15 K | 1028.57 | 1.4549 | 1397.2
313.15 K | 1024.92 | 1.4524 | 1381.5
318.15 K | 1021.27 | 1.45 | 1366.1
323.15 K | 1017.72 | 1.4477 | 1349.1
328.15 K | 1014.21 | 1.4452 | 1332.9
333.15 K | 1010.85 | 1.4427 | 1316.8
338.15 K | 1007.61 | 1.4401 | 1301.5
343.15 K | 1004.98 | 1.4378 | 1286.2

CC(C)OC(=O)[C@@H]1CCC[NH2+]1.CCCCCCCCCCCCOS(=O)(=O)[O-] [(S)-2-(isopropoxycarbonyl)pyrrolidin-1-ium dodecyl sulfate]
Conditions | mass density, [1] [kg/m3] | refractive index, [2] | speed of sound, [1] [m/s]
288.15 K | 1054.33 | 1.4575 | 1455.5
293.15 K | 1050.45 | 1.4559 | 1436.8
298.15 K | 1046.8 | 1.4542 | 1419.2
303.15 K | 1043.15 | 1.4525 | 1402.4
308.15 K | 1039.52 | 1.451 | 1386.3
313.15 K | 1035.89 | 1.4492 | 1370.7
318.15 K | 1032.27 | 1.4478 | 1355.5
323.15 K | 1028.73 | 1.4461 | 1340.6
328.15 K | 1025.22 | 1.4446 | 1326
333.15 K | 1021.7 | 1.4432 | 1311.7
338.15 K | 1018.2 | 1.4414 | 1297.6
343.15 K | 1014.69 | 1.4398 | 1284

CC(C)COC(=O)[C@@H](N)C(C)C.CCCCCCCCCCCCOS(=O)(=O)O [isobutyl L-valinate dodecyl sulfate]
Conditions | refractive index, [2] | speed of sound, [1] [m/s]
288.15 K | 1.4568 | 1434.4
293.15 K | 1.4555 | 1421.3
298.15 K | 1.4538 | 1408.6
303.15 K | 1.4519 | 1394.6
308.15 K | 1.4505 | 1379.9
313.15 K | 1.4488 | 1365.5
318.15 K | 1.4471 | 1350.9
323.15 K | 1.4455 | 1335.5
328.15 K | 1.4438 | 1318.1
333.15 K | 1.4422 | 1299.9
338.15 K | 1.4406 | 1275
343.15 K | 1.439 | 1249.5
